In US20080009448A1, “Peptide Derivative” (priority 2006, published 2008):
Read-outs that look alike come from different tables or passages of the source.

Key:
[1] = test system: heat nociceptive stimulation; assay: Anti-nociceptive activity test, tail-flick method; format: in vivo, mouse; conditions: for Oral ED50 / activity-peak time after the subcutaneous administration / Subcutaneous ED50 / ED50 / activity-peak time after the oral administration: mice; for Oral ED50 / Subcutaneous ED50 / ED50: at activity-peak time, parentheses = 95% confidence limit; for ED50: Mus musculus
Experimental: (1) Experimental animal, male ddy mice (Japan SLC), weighing the body weight in the range of 22 to 25 g, were used for the studies. The animals had been kept under constant conditions (room temperature 22±2° C., humidity 55±5%, 12 hours light-and-dark cycle having light time 9:00 to 21:00 and dark time 21:00 to 9:00) until used for an experiment. The animals were fed the mouse solid diet (F2, Funabashi farm. Funabashi, Japan) with unrestricted tap water intake.
SS8225-01, 02, 03 04, 05, 06, 07 and 08 as examples and SS8225-09, 10, 11 and 12 as comparison examples were used as the administered drugs. […] In addition only Liger solution was administered as an experimental control. The animals were left for 60 minutes in the plastic cage to become familiar to the environment prior to the test in which measured a latent time for each mouse before drug administration in accordance with a tail-flick method noted below. Heat was radiated to a part of each mouse tail which is 2 cm from the end of its tail. Each of heat radiation periods before beginning of tail-flick was measured as a false pain threshold. Mice which responded to the stimulation within 2.5 to 3.5 seconds were pre-selected for the test. Administration solution under one administration condition for one kind of drug was administered to one experimental animal group including 10 mice. After the body weight of each mouse was measured, each volume of the administration solution was adjusted to be 0.1 mL/10 g of mouse body weight and then the solution was administered. The administration methods were two methods of subcutaneous administration (s. c.) and oral administration (p. o.). On subcutaneous administration, the administration solution of 0.1 mL per 10 g of body weight (0.1 mL/10 g) was injected into the back of the mouse using 27 gauge needle. On oral administration, the administration solution of 0.1 mL per 10 g of body weight (0.1 mL/10 g) was administered using an oral sonde.
Heat was radiated to a part of each mouse's tail of respective experimental group, which is 2 cm from the end of its tail, at 15, 30 and 60 minutes after the drug administration according to the preset measurement interval and a latent time until respective mouse swung its tail was measured as a false pain threshold value. The maximum stimulation period (cut-off-time) was set as 10 seconds to minimize the damage to the stimulation part. The anti-nociceptive effect was evaluated quantitatively by calculating % MPE (% of maximum possible effect) according to the following formula. [formula] T1: A latent time until beginning of tail-flick before respective drug administration (seconds) T2: A latent time until beginning of tail-flick after respective drug administration (seconds) Tc: A maximum stimulation period (cut-off-time)
The graphs (FIG. 1, FIG. 3, FIG. 5, FIG. 7, FIG. 9, FIG. 11, FIG. 13, FIG. 15, FIG. 17, FIG. 19, FIG. 21, FIG. 23, FIG. 25, FIG. 27, FIG. 29, FIG. 31, FIG. 33 and FIG. 35) showing a time-course variation of % MPE were created, in which a vertical axis is an average value with a standard error (means ±S. E. M.) obtained by calculation of % MPE of respective animals of 10 mice every administration condition of respective drugs and a horizontal axis is a time after administration. After treating % MPE data of each animal of experimental groups with respective doses and % MPE data of each animal of the experimental group with a control Ringer's solution at the same measurement time every drugs using the two-way layout dispersion analysis (two-way ANOVA), the hazard-ratio of P<0.05 was decided to be a significant difference according to Bonferroni post-test.
A lasting time of anti-nociceptive activity of each drug in the present description is the lasting time of anti-nociceptive activity under the dose condition providing the longest lasting time.
ED50 is represented in the unit of mg/Kg.

male ddy mouse = assay: Evaluation of acute toxicity; conditions: s.c.; for Number of mice died (out of five): within 72 to 96 hours
Experimental: Mice weighing in the range of 22 to 25 g, male ddy mouse, were employed. Number of mice out of five mice in each group that died within 72 to 96 hours recorded.

[2] = test system: MSU induced knee osteoarthritis pain; assay: MSU induced knee osteoarthritis pain model, hind leg paw-pressure ratio; format: in vivo, rat; design: key to AUC of time-course variation of anti-nociceptive activity: AUC of the time course of anti-nociceptive activity as % MPE; conditions: rat, MSU knee model; for ED50: range in parentheses
Experimental: Experimental animal, male SD type rats, weighing the body weight in the range of 170 to 190 g, were used for the studies. The animals had been kept under constant conditions (room temperature 23±1° C., humidity 52±2%, 12 hours light-and-dark cycle having light time 7:00 to 19:00 and dark time 19:00 to 7:00) until used for an experiment. The animals were fed the mouse solid diet (F2, Funabashi farm. Funabashi, Japan) with unrestricted tap water intake, and kept in captivity for at least more than two days in a laboratory.
Any test drugs were dissolved in Ringer's solution (Fuso Yakuhin) to be used.
MSU was suspended with the suspension solution (10% of polyoxyethylene sorbitan mono-oleate (Tween 80: Nakarai Tesk) as 0.1 g per 1 mL. The animal was anesthetized with diethyl ether and after the surface of its left hind leg knee joint was wiped with 70% ethanol cotton, a porous administration of the suspension solution above noted was conducted into the cavity of let hind leg knee joint.
Pressures to both hind leg paw were measured using a paw-pressure measurement apparatus and recorded. Measurement time at respective times was 4.5 seconds. Calculated paw-pressure ratio (ppr) is a value calculated by dividing the pressure on the left hind leg by the pressure on the right hind leg according to the measured pressures on both hind legs.
The anti-nociceptive effect was evaluated quantitatively by calculating % MPE (% of maximum possible effect) according to the following formula. [formula]
In the formula, ppr 0 and ppr 1 are respective paw-pressure ratios on both hind legs before and after administration. ED50 value of anti-nociceptive activity was calculated using GraphPad Prism data-graph processing software version 4.0, San Diego, Calif., USA.
The strength of anti-nociceptive activity was represented by calculating the time-course variation of anti-nociceptive activity AUC using GraphPad Prism noted above.
Paw-pressure was measured twice at 4 hours after administration to provide ppr by calculation and the average of those values was both hind leg paw-pressure ratio before the drug administration. After the measurement of both hind leg paw-pressure before the drug administration, 0.1 mL of Ringer's solution or a test drug in Ringer's solution per 100 g rat body weight was orally administered, and then a paw-pressure was measured once every unit time after the oral administration.
Statistical processing was conducted using GraphPad Prism. After the two-way layout dispersion analysis, the hazard-ratio of P<0.05 was decided to be a significant difference according to Bonferroni post-test. The hazard-ratios were distinguished into less than 5% (P<0.05) and less than 1% (P<0.01) and represented as “*” and “**” in the same manner conducted for the Tail-flick method.

[3] = s.c., doses of 0.5 mg/Kg and 0.25 mg/Kg

## Iminoethyl-[Tyr]-[D-Met(O)]-[Phe]-[N-MeLys]-NHCH3 [SS8225-08]
[1]; p.o.
  Oral ED50: >10 mg/kg
[1]; s.c.
  activity-peak time after the subcutaneous administration: 90 min
  Subcutaneous ED50: 0.1 mg/kg
[1]; s.c., dose of 0.25 mg/Kg
  lasting time of anti-nociceptive activity: 5 h

## Iminoethyl-[Tyr]-[D-Met(O)]-[Phe]-[N-MeLys]-OH [SS8225-11]
[1]; p.o.
  Oral ED50: >10 mg/kg
[1]; p.o., listed as Comparison Example 5
  Oral ED50: over 10 mg/Kg
[1]; s.c.
  Subcutaneous ED50: >0.5 mg/kg
[1]; s.c., listed as Comparison Example 5
  Subcutaneous ED50: over 0.5 mg/Kg

## Iminoethyl-[DMT]-[D-Met(O)]-[Phe]-[N-MeLys]-NH2 [SS8225-05]
[1]; p.o.
  Oral ED50: >10 mg/kg
[1]; s.c.
  activity-peak time after the subcutaneous administration: 120 min
  Subcutaneous ED50: 0.10 mg/kg
[1]; s.c., dose of 0.25 mg/Kg
  lasting time of anti-nociceptive activity: 7 h

## CC(=N)N[C@@H](Cc1ccc(O)cc1)C(=O)N[C@H](CC[S+](C)[O-])C(=O)N[C@@H](Cc1ccccc1)C(=O)N(C)CCC(N)=O (stereo partly drawn) [SS8225-04, Iminoethyl-[Tyr]-[D-Met(O)]-[Phe]-[N-MeβAla]-NH2]
Male ddy mouse; dosage 6.25 mg/Kg (125 times the ED50)
  Lethality (%): 0%
Male ddy mouse; dosage 6.25 mg/Kg
  Number of mice died (out of five): 0
Male ddy mouse; dosage 25 mg/Kg (500 times the ED50)
  Lethality (%): 0%
Male ddy mouse; dosage 25 mg/Kg
  Number of mice died (out of five): 0
Male ddy mouse; dosage 50 mg/Kg (1000 times the ED50)
  Lethality (%): 20%
Male ddy mouse; dosage 50 mg/Kg
  Number of mice died (out of five): 1
Male ddy mouse; dosage 100 mg/Kg (2000 times the ED50)
  Lethality (%): 20%
Male ddy mouse; dosage 100 mg/Kg
  Number of mice died (out of five): 1
Male ddy mouse; mice
  acute toxicity: satisfactorily low

## COc1ccc2c3c1O[C@H]1C(=O)CC[C@@]4(O)[C@@H](C2)N(C)CC[C@]314 [Oxycodone]
[1]; po, p.o., read-out: Oral ED50
  ED50: 7.82 mg/kg
[1]; sc, s.c., read-out: Subcutaneous ED50
  ED50: 1.21 mg/kg
[1]; p.o.
  activity-peak time after the oral administration: 45 min
[1]; s.c.
  activity-peak time after the subcutaneous administration: 30 min
[1]; p.o., dose of 20 mg/Kg
  lasting time of anti-nociceptive activity: 5 h
[1]; s.c., dose of 1.75 mg/Kg
  lasting time of anti-nociceptive activity: 1.5 h
[2]; oral
  activity lasting-time, times longer than for morphine: 0.4 times
  activity peak: 60 min
[2]; oral 7.5 mg/kg
  AUC of time-course variation of anti-nociceptive activity: 2525
[2]; oral 15 mg/kg
  AUC of time-course variation of anti-nociceptive activity: 6363
[2]; oral 30 mg/kg
  AUC of time-course variation of anti-nociceptive activity: 10562
[2]; oral, %MPE, read-out: ED50 value at activity peak
  ED50: 10.3 mg/kg
[2]; oral, from ED50 of AUCs
  anti-nociceptive activities, times stronger than for morphine: approximately 1.8 times
[2]; oral, read-out: ED50 of AUCs
  ED50: 49.4 mg/kg
[2]; oral, stated after ED50 at activity peak
  anti-nociceptive activity lasting-times, times longer than for morphine: 3.6 times
[2]; orally administered
  activity lasting-time: 120 min

## Iminoethyl-[DMT]-[D-Met(O)]-[Phe]-[N-MeβAla]-NH2 [SS8225-03]
[1]; p.o.
  Oral ED50: >10 mg/kg
[1]; s.c.
  activity-peak time after the subcutaneous administration: 90 min
  Subcutaneous ED50: 0.08 mg/kg
[1]; [3]
  lasting time of anti-nociceptive activity: 7 h

## Iminoethyl-[DMT]-[D-Arg]-[Phe]-[N-MeLys]-OH [SS8225-12]
[1]; p.o.
  Oral ED50: >10 mg/kg
[1]; p.o., listed as Comparison Example 6
  Oral ED50: over 10 mg/Kg
[1]; s.c.
  Subcutaneous ED50: >0.5 mg/kg
[1]; s.c., listed as Comparison Example 6
  Subcutaneous ED50: over 0.5 mg/Kg

## Iminoethyl-[Tyr]-[D-Met(O)]-[Phe]-[N-MeLys]-NH2 [SS8225-06]
[1]; p.o.
  activity-peak time after the oral administration: 120 min
  Oral ED50: 6.02 mg/kg
[1]; s.c.
  activity-peak time after the subcutaneous administration: 90 min
  Subcutaneous ED50: 0.18 mg/kg
[1]; p.o., dose of 10 mg/Kg
  lasting time of anti-nociceptive activity: not less than 17 hours
[1]; s.c., dose of 0.25 mg/Kg
  lasting time of anti-nociceptive activity: 5 h

## [DMT]-[D-Arg]-[Phe]-[N-MeLys]-NH2 [SS8225-09]
[1]; p.o.
  Oral ED50: >10 mg/kg
[1]; p.o., listed as Comparison Example 3
  Oral ED50: over 10 mg/Kg
[1]; s.c.
  activity-peak time after the subcutaneous administration: 90 min
  Subcutaneous ED50: 0.44 mg/kg
[1]; s.c., dose of 1 mg/Kg
  lasting time of anti-nociceptive activity: 5 h

## Iminoethyl-[Tyr]-[D-Arg]-[Phe]-[N-MeβAla]-NH2 [SS8225-02]
[1]; p.o.
  activity-peak time after the oral administration: 240 min
  Oral ED50: 4.0 mg/kg
[1]; s.c.
  activity-peak time after the subcutaneous administration: 90 min
  Subcutaneous ED50: 0.06 mg/kg
[1]; p.o., dose of 10 mg/Kg
  lasting time of anti-nociceptive activity: 10 h
[1]; s.c., dose of 0.125 mg/Kg
  lasting time of anti-nociceptive activity: 6 h

## [DMT]-[D-Met(O)]-[Phe]-[N-MeLys]-NH2 [SS8225-10]
[1]; p.o.
  Oral ED50: >10 mg/kg
[1]; p.o., listed as Comparison Example 4
  Oral ED50: over 10 mg/Kg
[1]; s.c.
  activity-peak time after the subcutaneous administration: 90 min
  Subcutaneous ED50: 0.28 mg/kg
[1]; s.c., dose of 0.5 mg/Kg
  lasting time of anti-nociceptive activity: 6 h

## Iminoethyl-[DMT]-[D-Arg]-[Phe]-[N-MeβAla]-NH2 [SS8225-01]
[1]; p.o.
  Oral ED50: >10 mg/kg
[1]; s.c.
  activity-peak time after the subcutaneous administration: 90 min
  Subcutaneous ED50: 0.12 mg/kg
[1]; [3]
  lasting time of anti-nociceptive activity: not less than 7 hours
